Data: patent publication US9415027B2, “Therapeutic agents” (Allergan, Inc., priority 2013, dated 2016)

Legend:
[1] = molecular target: T1, EP2 (Homo sapiens, UniProt P43116); test: EP2 cAMP activity study; type: cell-based
Experimental: (§1) Data from running binding and activity studies on the compounds of the invention were carried out as described in U.S. Pat. No. 7,427,685, the contents of which are incorporated herein by reference.

[2] = molecular target: T1, EP2; test: EP2 binding study; details: read-out: EP2 Data (EC50 in nM) Ki
Experimental: as §1

[3] = molecular target: T2, EP4 (Homo sapiens, UniProt P35408); test: EP4 cAMP activity study; type: cell-based
Experimental: as §1

[4] = molecular target: T2, EP4; test: EP4 binding study; details: read-out: EP4 data (EC50 in nM) KI
Experimental: as §1

[5] = molecular target: T3, hEP3A (Homo sapiens, UniProt P43115); test: Other receptors activity, hEP3A; type: cell-based
T3 sequence (P43115 1-390): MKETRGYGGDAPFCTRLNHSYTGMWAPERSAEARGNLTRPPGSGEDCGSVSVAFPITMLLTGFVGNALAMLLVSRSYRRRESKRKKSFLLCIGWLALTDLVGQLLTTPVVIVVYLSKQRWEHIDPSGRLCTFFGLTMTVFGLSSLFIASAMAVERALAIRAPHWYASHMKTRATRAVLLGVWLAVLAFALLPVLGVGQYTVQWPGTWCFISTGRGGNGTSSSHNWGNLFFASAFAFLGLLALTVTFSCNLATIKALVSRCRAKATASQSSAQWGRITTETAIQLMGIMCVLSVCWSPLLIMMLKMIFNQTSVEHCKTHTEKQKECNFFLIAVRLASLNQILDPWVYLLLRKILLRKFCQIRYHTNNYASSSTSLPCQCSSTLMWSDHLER
Experimental: as §1

T2 sequence (P35408 whole entry): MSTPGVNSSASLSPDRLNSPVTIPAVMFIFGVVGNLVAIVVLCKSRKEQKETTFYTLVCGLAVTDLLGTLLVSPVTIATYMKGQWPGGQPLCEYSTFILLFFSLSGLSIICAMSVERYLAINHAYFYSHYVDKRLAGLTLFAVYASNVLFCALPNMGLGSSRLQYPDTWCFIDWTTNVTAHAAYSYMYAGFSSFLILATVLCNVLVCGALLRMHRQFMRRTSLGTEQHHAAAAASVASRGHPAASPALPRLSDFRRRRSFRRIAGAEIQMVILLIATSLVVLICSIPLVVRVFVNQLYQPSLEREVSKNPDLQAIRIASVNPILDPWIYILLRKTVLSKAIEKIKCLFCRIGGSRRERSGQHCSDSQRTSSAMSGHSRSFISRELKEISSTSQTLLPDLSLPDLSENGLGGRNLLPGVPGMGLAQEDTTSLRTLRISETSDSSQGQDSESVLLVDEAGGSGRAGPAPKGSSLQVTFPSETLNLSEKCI
T1 sequence (P43116 whole entry): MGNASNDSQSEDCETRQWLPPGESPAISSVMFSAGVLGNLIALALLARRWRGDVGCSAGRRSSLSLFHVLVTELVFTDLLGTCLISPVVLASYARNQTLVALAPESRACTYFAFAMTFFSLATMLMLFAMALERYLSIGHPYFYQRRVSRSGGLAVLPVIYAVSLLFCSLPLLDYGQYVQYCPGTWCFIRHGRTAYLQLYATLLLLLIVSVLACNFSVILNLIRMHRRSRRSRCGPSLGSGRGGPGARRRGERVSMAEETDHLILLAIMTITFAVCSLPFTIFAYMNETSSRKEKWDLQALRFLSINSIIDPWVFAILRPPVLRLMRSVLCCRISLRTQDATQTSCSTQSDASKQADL

Row | Compound | EC50 [1] [nM] | Ki [2] [nM] | EC50 [3] [nM] | Ki [4] [nM] | EC50 [5] [nM]
1 | O=C(O)c1ccc(CC2Cc3c(cccc3-c3cccc4ccccc34)C2=O)cc1 (stereo not drawn) [Example 4, 4-((4-(Naphthalen-1-yl)-1-oxo-2,3-dihydro-1H-inden-2-yl)methyl)benzoic acid] |  | 2080 | 1240 | 1280 | 
2 | O=C(O)c1ccc(CC2Cc3c(cccc3-c3ccc4ccccc4c3)C2=O)cc1 (stereo not drawn) [Example 5, 4-((4-(Naphthalen-2-yl)-1-oxo-2,3-dihydro-1H-inden-2-yl)methyl)benzoic acid] | 40 | 61 | > 10000 | 1190 | 
3 | COc1cccc(-c2cccc3c2CC(Cc2ccc(C(=O)O)cc2)C3=O)c1 (stereo not drawn) [Example 11, 4-((4-(3-Methoxyphenyl)-1-oxo-2,3-dihydro-1H-inden-2-yl)methyl)benzoic acid] |  | 333 | 186 | 525 | 
4 | O=C(O)c1ccc(CC2Cc3c(cccc3-c3ccccc3)C2=O)cc1 (stereo not drawn) [Example 13, 4-((1-Oxo-4-phenyl-2,3-dihydro-1H-inden-2-yl)methyl)benzoic acid] |  | 1140 | 2440 | 1010 | 
5 | O=C(O)c1ccc(CC2CCc3c(cccc3-c3cccc(C(F)(F)F)c3)C2=O)s1 (stereo not drawn) [Example 14, 5-((1-Oxo-5-(3-(trifluoromethyl)phenyl)-1,2,3,4-tetrahydronaphthalen-2-yl)methyl)thiophene-2-carboxylic acid] | 79 | 1390 | 341 | 1070 | 
6 | O=C(O)c1ccc(CC2Cc3c(cccc3-c3cccc(C(F)(F)F)c3)C2=O)s1 (stereo not drawn) [Example 15, 5-((1-Oxo-4-(3-(trifluoromethyl)phenyl)-2,3-dihydro-1H-inden-2-yl)methyl)thiophene-2-carboxylic acid] | 11 | 131 | 54 | 137 | > 10000
7 | O=C(O)c1ccc(CC2Cc3c(cccc3-c3cccc(Cl)c3)C2=O)s1 (stereo not drawn) [Example 16, 5-((4-(3-Chlorophenyl)-1-oxo-2,3-dihydro-1H-inden-2-yl)methyl)thiophene-2-carboxylic acid] | 62 | 199 | 300 | 505 | 
8 | O=C(O)c1cc(CC2Cc3c(cccc3-c3cccc(C(F)(F)F)c3)C2=O)cs1 (stereo not drawn) [Example 17, 4-((1-Oxo-4-(3-(trifluoromethyl)phenyl)-2,3-dihydro-1H-inden-2-yl)methyl)thiophene-2-carboxylic acid] | 695 | 674 | > 10000 | 7 | 
9 | O=C(O)c1csc(CC2Cc3c(cccc3-c3cccc(C(F)(F)F)c3)C2=O)c1 (stereo not drawn) [Example 18, 5-((1-Oxo-4-(3-(trifluoromethyl)phenyl)-2,3-dihydro-1H-inden-2-yl)methyl)thiophene-3-carboxylic acid] | 179 | 96 | 4970 | 5 | 

Second part, the molecule after the results:

Row | EC50 [1] [nM] | Ki [2] [nM] | EC50 [3] [nM] | Ki [4] [nM] | EC50 [5] [nM] | Compound
10 | 6 | 70 | 196 | 149 |  | O=C(O)c1ccc(CC2CCc3c(cccc3-c3cccc(C(F)(F)F)c3)C2=O)cc1 (stereo not drawn) [Example 1, 4-((1-Oxo-5-(3-(trifluoromethyl)phenyl)-1,2,3,4-tetrahydronaphthalen-2-yl)methyl)benzoic acid]
11 | 1 | 56 | 108 | 18 |  | O=C(O)c1ccc(CC2Cc3c(cccc3-c3cccc(C(F)(F)F)c3)C2=O)cc1 (stereo not drawn) [Example 2, 4-((1-Oxo-4-(3-(trifluoromethyl)phenyl)-2,3-dihydro-1H-inden-2-yl)methyl)benzoic acid]
12 | 26 | 130 | 1070 | 954 |  | O=C(O)c1ccc(CC2Cc3c(cccc3-c3cccc(Cl)c3)C2=O)cc1 (stereo not drawn) [Example 3, 4-((4-(3-Chlorophenyl)-1-oxo-2,3-dihydro-1H-inden-2-yl)methyl)benzoic acid]
13 |  | 338 | > 10000 | 4450 |  | O=C(O)c1ccc(CC2Cc3c(cccc3-c3ccc(C(F)(F)F)cc3)C2=O)cc1 (stereo not drawn) [Example 6, 4-((1-Oxo-4-(4-(trifluoromethyl)phenyl)-2,3-dihydro-1H-inden-2-yl)methyl)benzoic acid]
14 |  | > 10000 | > 10000 | 7090 |  | O=C(O)c1ccc(CC2Cc3c(cccc3-c3ccccc3C(F)(F)F)C2=O)cc1 (stereo not drawn) [Example 7, 4-((1-Oxo-4-(2-(trifluoromethyl)phenyl)-2,3-dihydro-1H-inden-2-yl)methyl)benzoic acid]
15 | 11 | 21 | 1050 | 889 |  | COc1cc(-c2cccc3c2CC(Cc2ccc(C(=O)O)cc2)C3=O)cc(C(F)(F)F)c1 (stereo not drawn) [Example 8, 4-((4-(3-Methoxy-5-(trifluoromethyl)phenyl)-1-oxo-2,3-dihydro-1H-inden-2-yl)methyl)benzoic acid]
16 | 5 | 9 | 1630 | 1780 |  | O=C(O)c1ccc(CC2Cc3c(cccc3-c3cc(C(F)(F)F)cc(C(F)(F)F)c3)C2=O)cc1 (stereo not drawn) [Example 9, 4-((4-(3,5-Bis(trifluoromethyl)phenyl)-1-oxo-2,3-dihydro-1H-inden-2-yl)methyl)benzoic acid]
17 | 1 | 3 | 1090 | 1350 |  | O=C(O)c1ccc(CC2Cc3c(cccc3-c3ccc(Cl)c(C(F)(F)F)c3)C2=O)cc1 (stereo not drawn) [Example 10, 4-((4-(4-Chloro-3-(trifluoromethyl)phenyl)-1-oxo-2,3-dihydro-1H-inden-2-yl)methyl)benzoic acid]
18 | 217 | 191 | 1170 | 610 |  | Cc1cccc(-c2cccc3c2CC(Cc2ccc(C(=O)O)cc2)C3=O)c1 (stereo not drawn) [Example 12, 4-((1-Oxo-4-(m-tolyl)-2,3-dihydro-1H-inden-2-yl)methyl)benzoic acid]
19 |  | 6760 | 1470 | 2740 |  | O=C(O)c1cccc(CC2Cc3c(cccc3-c3cccc(C(F)(F)F)c3)C2=O)c1 (stereo not drawn) [Example 19, 3-((1-Oxo-4-(3-(trifluoromethyl)phenyl)-2,3-dihydro-1H-inden-2-yl)methyl)benzoic acid]
20 |  | 7360 | > 10000 | 954 |  | COc1ccc(-c2cccc(C(F)(F)F)c2)c2c1C(=O)C(Cc1ccc(C(=O)O)cc1)C2 (stereo not drawn) [Example 20, 4-((7-Methoxy-1-oxo-4-(3-(trifluoromethyl)phenyl)-2,3-dihydro-1H-inden-2-yl)methyl)benzoic acid]
21 | 79 | 241 | 874 | 486 |  | COc1cc(OC)cc(-c2cccc3c2CC(Cc2ccc(C(=O)O)cc2)C3=O)c1 (stereo not drawn) [Example 21]
